According to patent US11040112B2, “Lipids and lipid nanoparticle formulations for delivery of nucleic acids” (Acuitas Therapeutics, Inc., priority 2015, dated 2021):

Experiments:
[1] = Determination of pKa of formulated lipids in lipid nanoparticles (TNS fluorescence assay); type: physicochemical; conditions: pKa of cationic lipid in LNP (cationic lipid/DSPC/cholesterol/PEG-lipid 50/10/38.5/1.5 mol %), pH of half-maximal intensity
Method: As described elsewhere, the pKa of formulated cationic lipids is correlated with the effectiveness of LNPs for delivery of nucleic acids (see Jayaraman et al, Angewandte Chemie, International Edition (2012), 51(34), 8529-8533; Semple et al, Nature Biotechnology 28, 172-176 (2010)). The preferred range of pKa is ˜5 to ˜7. […] Lipid nanoparticles comprising of cationic lipid/DSPC/cholesterol/PEG-lipid (50/10/38.5/1.5 mol %) in PBS at a concentration of 0.4 mM total lipid are prepared using the in-line process as described in Example 1. TNS was prepared as a 100 μM stock solution in distilled water. Vesicles were diluted to 24 μM lipid in 2 mL of buffered solutions containing, 10 mM HEPES, 10 mM MES, 10 mM ammonium acetate, 130 mM NaCl, where the pH ranged from 2.5 to 11. An aliquot of the TNS solution was added to give a final concentration of 1 μM and following vortex mixing fluorescence intensity was measured at room temperature in a SLM Aminco Series 2 Luminescence Spectrophotometer using excitation and emission wavelengths of 321 nm and 445 nm. A sigmoidal best fit analysis was applied to the fluorescence data and the pKa was measured as the pH giving rise to half-maximal fluorescence intensity (see FIG. 2).

[2] = system: luciferase expression in the liver; experiment: Luciferase mRNA in vivo evaluation: luciferase expression in the liver after tail vein injection of FLuc mRNA lipid nanoparticles; design: species or system mice; conditions: liver 4 hours after administration, Lipid Ratio B: 47.5% cationic lipid/10% DSPC/40.8% cholesterol/1.7% PEG lipid; for Liver Luc @ 0.3 mg/kg (ng luc/g liver): 0.3 mg mRNA/kg; for Liver Luc @ 1.0 mg/kg (ng luc/g liver): 1.0 mg mRNA/kg
Method: Cationic lipid, DSPC, cholesterol and PEG-lipid were solubilized in ethanol at a molar ratio of 50:10:38.5:1.5 or 47.5:10:40.8:1.7. Lipid nanoparticles (LNP) were prepared at a total lipid to mRNA weight ratio of approximately 10:1 to 30:1. Briefly, the mRNA was diluted to 0.2 mg/mL in 10 to 50 mM citrate buffer, pH 4. Syringe pumps were used to mix the ethanolic lipid solution with the mRNA aqueous solution at a ratio of about 1:5 to 1:3 (vol/vol) with total flow rates above 15 ml/min. The ethanol was then removed and the external buffer replaced with PBS by dialysis. Finally, the lipid nanoparticles were filtered through a 0.2 μm pore sterile filter. Lipid nanoparticle particle size was approximately 55-95 nm diameter, and in some instances approximately 70-90 nm diameter as determined by quasi-elastic light scattering using a Malvern Zetasizer Nano ZS (Malvern, UK).
Studies were performed in 6-8 week old female C57BL/6 mice (Charles River) 8-10 week old CD-1 (Harlan) mice (Charles River) according to guidelines established by an institutional animal care committee (ACC) and the Canadian Council on Animal Care (CCAC). Varying doses of mRNA-lipid nanoparticle were systemically administered by tail vein injection and animals euthanized at a specific time point (e.g 4 hrs) post-administration. Liver and spleen were collected in pre-weighed tubes, weights determined, immediately snap frozen in liquid nitrogen and stored at −80° C. until processing for analysis.
For liver, approximately 50 mg was dissected for analyses in a 2 mL FastPrep tubes (MP Biomedicals, Solon Ohio). ¼″ ceramic sphere (MP Biomedicals) was added to each tube and 500 μL of Glo Lysis Buffer—GLB (Promega, Madison Wis.) equilibrated to room temperature was added to liver tissue. Liver tissues were homogenized with the FastPrep24 instrument (MP Biomedicals) at 2×6.0 m/s for 15 seconds. Homogenate was incubated at room temperature for 5 minutes prior to a 1:4 dilution in GLB and assessed using SteadyGlo Luciferase assay system (Promega). Specifically, 50 μL of diluted tissue homogenate was reacted with 50 μL of SteadyGlo substrate, shaken for 10 seconds followed by 5 minute incubation and then quantitated using a CentroXS^3 LB 960 luminometer (Berthold Technologies, Germany). The amount of protein assayed was determined by using the BCA protein assay kit (Pierce, Rockford Ill.). Relative luminescence units (RLU) were then normalized to total ug protein assayed. To convert RLU to ng luciferase a standard curve was generated with QuantiLum Recombinant Luciferase (Promega). Based in the data provided in FIG. 1, the four-hour time point was chosen for efficacy evaluation of the lipid formulations.
The FLuc mRNA (L-6107) from Trilink Biotechnologies will express a luciferase protein, originally isolated from the firefly, Photinus pyralis. FLuc is commonly used in mammalian cell culture to measure both gene expression and cell viability. It emits bioluminescence in the presence of the substrate, luciferin. This capped and polyadenylated mRNA is fully substituted with 5-methylcytidine and pseudouridine.
The cationic lipids shown in Table 2 have previously been tested with nucleic acids. For comparative purposes, these lipids were also used to formulate lipid nanoparticles containing the FLuc mRNA (L-6107) using an in line mixing method, as described in Example 1 and in PCT/US10/22614, which is hereby incorporated by reference in its entirety. […]

Structure (SMILES)	pKa [1]	Liver Luc @ 0.3 mg/kg (ng luc/g liver) [2]	Liver Luc @ 1.0 mg/kg (ng luc/g liver) [2]
CCCCCCC(CCCC)C(=O)OCCCCCCCCCN(CCCO)CCCCCCCCCOC(=O)C(CCCC)CCCCCC (stereo not drawn) [Compound 45]	6.25	1026 ± 199 ng luc/g liver	8806 ± 2836 ng luc/g liver
CCCCCCCCC(CCCCCC)COC(=O)CCCCCCCN(CCO)CCCCCCCC(=O)OCC(CCCCCC)CCCCCCCC (stereo not drawn) [Compound 46]	6.06	4 ± 2 ng luc/g liver	5 ± 3 ng luc/g liver
